Source: publication PMC11358882, “Neuroprotective Effects of Phenolic Constituents from Drynariae Rhizoma” (Pharmaceuticals, 2024)
Several values for one entry are separate records, joined by “and”; a condition that tells them apart may be missing. Identical values can stand only once.

Legend:
β-secretase = assay: Western blot of β-secretase levels in APP-CHO cells; format: cell-based, Chinese hamster; details: 1.0 μM, 24 h
Method: APP-CHO cells were seeded in six-well plates at a density of 6 × 10^5 cells/1000 μL of medium per well and incubated at 37 °C overnight for cell attachment. Then, the medium was replaced with FBS-free RPMI 1640 for 1 h, followed by treatment with test samples at 37 °C. After 24 h, the cells were washed with PBS and lysed in Laemmli sample buffer. The collected cell lysates were boiled at 100 °C for 10 min. For Western blot analysis, 20 μg of proteins were separated by 7.5% SDS-PAGE and transferred to a PVDF membrane using Trans-Blot® Turbo TM (Bio-Rad, Hercules, CA, USA). The membrane was blocked with 5% skim milk in PBS for 1 h and incubated with primary antibodies overnight at 4 °C. The primary antibodies used were sAPPβ antibody, BACE1 antibody, and α-tubulin antibody diluted at 1:1000, 1:1000, and 1:25,000, respectively. After washing with PBS-T (0.1% Tween 20 in PBS) three times for 10 min each, secondary antibodies, diluted to 1:2500, were incubated for 1 h. Protein detection was performed using ECL solution reagent and protein visualization (ChemiDoc^TM XRS+., Bio-Rad, Hercules, CA, USA). The signal intensity of the bands was quantified and normalized to the signal intensity of the α-tubulin band. Results were expressed as a percentage of DMSO-treated control.

BACE1 = molecular target: T1, BACE1 (Homo sapiens, UniProt P56817); assay: BACE1 (β-secretase) FRET inhibitory assay; format: biochemical; details: isolated compounds; mean ± SD, n = 3; read-out: IC50 BACE1
T1 construct: purchased PanVera Corporation, Madison, WI, USA P2985
Method: The BACE1 inhibition assay was conducted using the BACE1 (β-secretase) FRET Assay Kit, Red Protocol, part number P2985 (PanVera® Corporation, Madison, WI, USA), following the manufacturer’s recommended protocol with minor modifications. The assay mixture consisted of 10 μL of BACE1 (1.0 U/mL), 10 μL of substrate (750 nM Rh-[…]-Quencher in 50 mM ammonium bicarbonate), the assay buffer (50 mM sodium acetate, pH 4.5), and 10 μL of the test samples. […] The reaction mixture was incubated for 60 min at room temperature in darkness. Before measurement, a stop solution (2.5 M sodium acetate) was added to halt the reaction. BACE1 enzyme activity was assessed by monitoring the proteolysis of two fluorophores (Rh-[…]-Quencher), forming the fluorescent donor (Rh-EVNL) with increased fluorescence wavelengths at 530–545 nm (excitation) and 570–590 nm (emission), respectively. All reactions were recorded in black 96-well microplates and performed in triplicate. The percentage of inhibition (%) was calculated using the following formula: inhibition (%)=[1−(S60−S0)/(C60−C0)]×100 , where C60 represents the fluorescence of the control after incubation, C0 represents the initial fluorescence of the control, S60 represents the fluorescence of the tested sample after incubation, and S0 represents the initial fluorescence of the tested sample. The BACE1-inhibitory activities of each sample were quantified in terms of IC50, which was determined from the log–dose inhibition curve.

MAO-B = molecular target: T2, MAO-B (Homo sapiens, UniProt P27338); assay: MAO-B inhibitor screening kit (fluorometric) assay; format: biochemical; details: isolated compounds; mean ± SD, n = 3; ND = no detection using test concentration
T2 construct: purchased Abcam plc, Cambridge, UK ab284511
T2 sequence (P27338 1-520): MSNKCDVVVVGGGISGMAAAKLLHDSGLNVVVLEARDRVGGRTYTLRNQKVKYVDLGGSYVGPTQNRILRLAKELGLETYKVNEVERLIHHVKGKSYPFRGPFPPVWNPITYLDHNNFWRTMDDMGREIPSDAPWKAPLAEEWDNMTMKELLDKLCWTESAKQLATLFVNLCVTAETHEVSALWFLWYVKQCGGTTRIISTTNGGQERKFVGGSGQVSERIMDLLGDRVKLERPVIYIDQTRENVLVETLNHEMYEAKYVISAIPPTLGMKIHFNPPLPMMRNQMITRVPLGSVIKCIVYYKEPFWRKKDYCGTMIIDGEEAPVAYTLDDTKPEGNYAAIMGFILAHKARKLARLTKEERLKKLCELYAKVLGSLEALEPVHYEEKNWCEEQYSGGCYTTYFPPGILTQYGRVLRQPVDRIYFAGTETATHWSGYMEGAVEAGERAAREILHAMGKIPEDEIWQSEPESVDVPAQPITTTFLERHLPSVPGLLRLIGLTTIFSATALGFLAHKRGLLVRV
Method: The MAO-B-inhibition assay was conducted using the MAO-B Inhibitor Screening Kit (Fluorometric) ab284511 (Abcam plc, Cambridge, UK), following the manufacturer’s recommended protocol with minor modifications. The enzyme solution (50 µL) and the test sample (10 µL) were adjusted as per the manual instructions. […] After mixing, samples and enzymes were incubated at 25 °C for 10 min. Subsequently, 40 μL of MAO-B substrate (comprising MAO-B assay buffer, MAO substrate, developer, and OxiRed probe) was added, followed by further incubation at 25 °C for 5 min. Fluorescence was measured using enzyme-linked immunosorbent assay within 40 min with dynamic fluorescence (Ex/Em = 535/587 nm). All reactions were recorded in black 96-well microplates and performed in triplicate. The slope for all samples, including the enzyme control (EC), was calculated by dividing the net ΔRFU (RFU2–RFU1) values by the time Δt (T2 − T1). The % relative inhibition was computed as follows: % relative inhibition=(slope of EC−slope of S)/slope of EC×100 . The MAO-B-inhibitory activities of each sample were quantified in terms of IC50, as determined from the log–dose inhibition curve.

T1 sequence (P56817 46-501): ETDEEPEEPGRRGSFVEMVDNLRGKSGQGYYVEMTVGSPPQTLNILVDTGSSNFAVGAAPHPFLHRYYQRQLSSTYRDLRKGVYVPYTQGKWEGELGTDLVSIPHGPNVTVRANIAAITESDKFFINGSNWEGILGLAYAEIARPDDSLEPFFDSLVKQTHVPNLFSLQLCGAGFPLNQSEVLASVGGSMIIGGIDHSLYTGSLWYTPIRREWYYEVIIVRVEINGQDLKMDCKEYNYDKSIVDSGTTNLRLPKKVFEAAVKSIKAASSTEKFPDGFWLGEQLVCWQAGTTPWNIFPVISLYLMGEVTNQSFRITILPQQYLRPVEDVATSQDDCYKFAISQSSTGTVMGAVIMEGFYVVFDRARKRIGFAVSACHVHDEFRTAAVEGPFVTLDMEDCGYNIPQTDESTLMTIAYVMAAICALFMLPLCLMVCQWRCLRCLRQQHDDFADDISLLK

Compound: C[C@@H]1O[C@@H](Oc2c(-c3ccc(O)cc3)oc3cc(O[C@@H]4O[C@H](CO)[C@@H](O)[C@H](O)[C@H]4O)cc(O)c3c2=O)[C@H](O)[C@H](O)[C@H]1O [Compound 6, kaempferol 3-O-rhamnoside 7-O-glucoside]
- reduction of β-secretase levels compared to DMSO-treated controls (β-secretase): 30%
- IC50 (BACE1): 83.27 ± 0.33 µM
- IC50 (MAO-B): 109.19 ± 0.08 µM

Compound: O=c1c(O[C@@H]2O[C@H](CO)[C@@H](O)[C@H](O)[C@H]2O)c(-c2ccc(O)cc2)oc2cc(O[C@@H]3O[C@@H](CO)[C@H](O)[C@H]3O)cc(O)c12 [Compound 7, kaempferol 3-o-b-d-glucopyranoside-7-o-a-L-arabinofuranoside]
- reduction of β-secretase levels compared to DMSO-treated controls (β-secretase): 40% and 30%
- IC50 (BACE1): 39.11 ± 0.17 µM
- IC50 (MAO-B): 65.8 ± 3.72 µM
